Data set [1] concerns MUC1. As to conditions: for MUC1 protein (immunoblot): 0.8 μM. A general note: Immunoblotting shows a protein as a band on a membrane.
Procedure: Cell Culture: Human MCF-7 breast carcinoma and HeLa cervical carcinoma cella (obtained form the ATCC, Manassas, Va.) were grown in DMEM (high glucose; Mediatech, Cellgrow) supplemented with 10% heat-inactivated fetal calf serum (FCS) and 2 mM L-glutamate.
Immunoblot analysis: Cells were lysed in ice-cold lysis buffer (20 mM Tris-HCl, pH 8.0, 150 mM NaCl, 1% Triton-X-100, 1 mM phenylsulfonyl fluoride, 1 mM DTT, 10 μgm/ml aprotinin) for 30 min. Lysates were cleared by centrifugation for 20 min. at 4° C. as described (Yin et al, 2001). Proteins were separated by SDS-PAGE, transferred to nitrocellulose and probed with anti-DF3/MUC1 (Kufe, U.S. Pat. No. 5,506,34) or anti-β-actin (Sigma). The antigen-antibody complexes were visualized by enhanced chemiluminescence (ECL; Amersham Life Sciences).
CDDO downregulates MUC1 expression: MUC1-positive cells were treated with CDDO at concentrations of 1, 3 and 5 μM.
The subject of data set [2] is intrinsic apoptotic pathway. The data set can be described thus: Activation of the intrinsic apoptotic pathway in 3Y1 cells. It counts as cell-based, Rat. The following applies: for mitochondrial transmembrane potential: 10 mM ara-C. As for the experimental part:
(§1) Cell culture. Rat 3Y1 fibroblasts stably expressing the empty vector or full-length MUC1 (19) were cultured in Dulbecco's modified Eagle's medium containing 10% heat-inactivated fetal calf serum, 100 units/ml penicillin, […] streptomycin and 2 mM L-glutamine. Cells were treated with 25 mM LY294002 (Sigma), 10 mM 1-b-D-arabinofuranosycyltosine (ara-C; Sigma) or 50 mM gemcitabine (Eli Lilly).
Immunoblot analysis. Whole cell lysates and cytoplasmic fractions were prepared from subconfluent cells as described (Li et all., 1998; Li et al., 2001).
Assessment of mitochondrial transmembrane potential. Cells were incubated with 50 ng/ml Rhodamine 123 (Molecular Probes, Eugene, Oreg.) for 15 min at 37° C. After washing with PBS, samples were analyzed by flow cytometry using 488 nm excitation and measurement of emission through a 575/26 (ethidium) bandpass filter.
Isolation of mitochondria. Mitochondria were purified as described (Kumar et al., 2003).
MUC1 blocks activation of the intrinsic apoptotic pathway. Increases in phospho-Bad and Bcl-xL protect against apoptosis induced by activation of the intrinsic mitochondrial pathway (Van Heiden et al., 1997; Datta et al., 1995). To assess the effects of MUC1 on chemosensitivity, we treated cells with ara-C, an antimetabolite that induces release of mitochondrial cytochrome c and thereby apoptosis (Major et al., 1981; Kojima et al., 1998). Exposure of 3Y1/vector-A and -B cells to ara-C was associated with a decrease in mitochondrial transmembrane potential (FIG. 3A). […] Moreover, caspase-3-mediated cleavage of PKCd (Emoto et at., 1995) was attenuated in the MUC1 expressing cells. […] These findings indicate that MUC1 attenuates ara-C-induced activation of the intrinsic apoptotic pathway.

Data set [3] concerns 3Y1 fibroblasts. Put plainly: Apoptosis assays (TUNEL, sub-G1 DNA) in 3Y1 cells. It counts as cell-based, Rat. On the procedure:
as §1
Apoptosis assays. For TUNEL staining, cells were fixed in 4% paraformaldehyde, permeabilized in 0.1% Triton X-100/0.1% sodium citrate for 2 min and processed according to the manufacturer's instructions (In Situ Cell Death detection kit, fluorescein; Roche). For analysis of sub-G1 DNA, cells were washed with PBS, fixed in 70% ethanol, incubated with 2.5 mg/ml propidium iodide and 50 mg/ml RNase, and then monitored by FACScan.
MUC1 attenuates ara-C- and gemcitabine-induced apoptosis. To determine if MUC1 affects induction of apoptosis by ara-C, the 3Y1/vector and 3Y1/MUC1 cells were analyzed for TUNEL staining and sub-G1 DNA. […] Moreover, ara-C treatment of 3Y1/vector cells was associated with over 40% apoptosis as determined by sub-G1 DNA analysis.
To extend these observations to other anti-cancer agents, we treated the 3Y1/vector and 3Y1/MUC1 cells with gemcitabine. As determined by analysis of sub-G1 DNA and as found with ara-C, gemcitabine-induced apoptosis was attenuated in 3Y1/MUC1, as compared to 3Y1/vector, cells.

Data set [4] concerns MUC1. The data set can be described thus: MUC1 induction by oxidative and genotoxic stress (immunoblot). As to conditions: MCF-7 cells. As for the experimental part:
To determine whether MUC1 is induced in response to oxidative stress, MCF-7 cells were treated with hydrogen peroxide. Cell lysates were analyzed by immunoblotting with anti-DF3/MUC1 antibody. Lysates were prepared by suspending MCF-7 cells in lysis buffer (50 mM Tris, pH 7.6, 150 mM NaCl, 1 mM PMSF, 3 mM NaF, 1 mM sodium vandate, 1 mM DTT with protease inhibitors and either 1% NP-40 or 1% Brij-96) for 30 min. on ice. Lysates were cleared by centifugation and equal amounts of proteins were resolved by SDS-PAGE. Proteins were then transferred to nitrocellulose filters, blocked by incubation in 5% non-fat dry milk in PBS with 0.05% Tween-20 and probed with anti-MUC1 antibody (Pandey et al., 1995). Anti-actin was used as a control.
Similar studies were performed with genotoxic agents.

For data set [5], the system named is ZR-75-1 breast carcinoma cells. Put plainly: Apoptosis assay (sub-G1 DNA) in ZR-75-1 cells. The format is cell-based, human. As to conditions: ZR-75-1 cells; 10 and 50 μM etoposide. As for the experimental part: Apoptosis assay: Apoptotic cells were quantified by analysis of sub-G1 DNA. Cells were harvested, washed with PBS, fixed with 80% ethanol, and incubated in PBS containing 20 ng/ml RNase (Roche) for 60 min at 37° C. Cells were stained with 40 μg/ml propidium iodide (Sigma) for 30 min at room temperature in the dark. DNA content was analyzed by flow cytometry (EPICS XL-MCL, Coulter Corp.).
As a control, stable transfection of ZR-75-1 cells with the empty reterovirus had no effect on MUC1 expression. […] By contrast, CDDP treatment of ZR-75-1/MUC1siRNA cells was associated with a clear loss of ΔΨm. In concert with these findings, cytochrome C release, as measured by immunoblot, was attenuated in CDDP-treated ZR-75-1/vector cells, as compared to ZR-75-1/MUC1siRNA cells. […] Treatment of ZR-75-1/vector cells with CDDP was associated with the induction of approximately 25% apoptosis.

Data set [6] has as its system HCT116 cells. The data set can be described thus: Apoptosis (sub-G1 DNA, TUNEL) in HCT116 transfectants. It counts as cell-based, human. The following applies: HCT116/vector cells. As for the experimental part: Methods. Apoptotic cells were quantified by analysis of sub-G1 DNA and TUNEL staining. To assess sub-G1 DNA content, cells were harvested, washed with PBS, fixed with 80% ethanol, and incubated in PBS containing 20 ng/ml RNase (Roche) for 60 min at 37° C. Cells were then stained with […] propidium iodide (Sigma) for 30 min at room temperature in the dark. DNA content was analyzed by flow cytometry (EPICS XL-MCL, Coulter Corp.). Apoptotic cells with DNA fragmentation were detected by staining with the In Situ cell death detection kit (TUNEL; Roche Applied Science) and visualized by confocal microscopy (ZEISS LSM510). After staining, cells were analyzed by flow cytometry. Other experimental procedures and methods were as described in Example 15.
Results. To determine if MUC1 affects the induction of apoptosis by CDDP, cells were analyzed for sub-G1 DNA content. […] Stimulation of cell surface death receptors with TNF-α or the TNF-related apoptosis inducing factor TRAIL is associated with activation of the extrinsic apoptotic pathway. To determine if MUC1 affects death receptor-induced apoptosis, HCT116 cells were treated with TNF-α.

Data set [7] has as its system MUC1. The data set can be described thus: Western blot of MUC1 after siRNA transfection. It counts as cell-based, human. As to conditions: MCF-7 cells; siRNA 0.2 micromolar; FIG. 5, FIG. 6. The text has this: Cell Culture: Human MCF-7 breast cancer cells were maintained in DMEM supplemented with 10% heat inactivated fetal bovine serum (FBS) and 1% penicillin-streptomycin mixture. Human A549 non-small cell lung cancer cells were maintained in RPMI1640 medium supplemented with 10% FBS and 1% penicillin-streptomycin mixture.
siRNAs: Five different double stranded anti-MUC1 siRNAs were designed: one against the target sequence SEQ ID NO: 63, i.e., […], with sense and antisense strands as shown in SEQ ID NO: 64 and SEQ ID NO: 65 respectively (hereinafter siRNA #1); one against the target sequence SEQ ID NO: 42, i.e., […], with sense and antisense strands as shown in SEQ ID NO: 43 and SEQ ID NO: 44 respectively (hereinafter siRNA #2); one against the target sequence SEQ ID NO: 21, i.e., […], with sense and antisense strands as shown in SEQ ID NO: 22 and SEQ ID NO: 23 respectively (hereinafter siRNA #3); one against the target sequence SEQ ID NO: 66, i.e., […], with sense and antisense strands as shown by SEQ ID NO: 67 and SEQ ID NO: 68 respectively (hereinafter siRNA #4); and one against target sequence SEQ ID NO: 69, i.e., […], with sense and antisense strands as shown by SEQ ID NO: 70 and SEQ ID NO: 71 respectively (hereinafter siRNA #5). A control siRNA was designed against the scrambled target SEQ ID NO: 72 with sense and antisense strands as shown by SEQ ID NO: 73 and SEQ ID NO: 74 respectively. Each RNA sense oligonucleotide (50 μM) was combined with equal volume of antisense oligonucleotide (50 μM) in an annealing buffer (20 mM KCl, 6 mM HEPES-KOH, pH 7.5, 0.2 mM MgCl2). The solution was incubated for 1 min at 90° C. to denature secondary structure, and placed at 37° C. for 1 hour to anneal the complementary strands. The subsequent double stranded RNAs were used as the anti-MUC1 siRNA.
Transfection: Cells (1-3×10^5 cells/well) were plated in 6-well plates in growth medium without antibiotics, and incubated overnight. After washing cells once with Opti-MEM I (Invitrogen), 800 μL of fresh Opti-MEM I and 200 μL of the Reagent (Invitrogen) were added to the cultured cells. Four hours later, 300 μL of FBS was added to the cultured cells.
Western Blot Analysis: Cell were passed a day before transfection. MUC1 siRNA (0.2 micromolar) was added with oligofectamine to cells in 0% FBS. Four hours later serum was added to a final concentration of 10%. After various time intervals (48 h, 72 h and 96 h), cells were washed and total cell lysates were prepared. Proteins were separated from cell lysates by SDS-PAGE, transferred to nitrocellulose and analyzed by immunoblotting with anti-DF3 antibodies.

Like-named read-outs stand apart in the source and are kept apart here. d = 2'-deoxy (DNA); r = 2'-OH (RNA)

With 2-propyl-imadazole CDDO [CDDO-Pr-Im], in data set [1], the “MUC1 protein (immunoblot)” value was “decreased levels”.

On to `CC1(C)CC[C@]2(C(=O)n3ccnc3)CC[C@]3(C)[C@H](C(=O)C=C4[C@@]5(C)C=C(C#N)C(=O)C(C)(C)[C@@H]5CC[C@]43C)[C@@H]2C1` [CDDO-Im, imadzole CDDO], for which the “MUC1 protein (immunoblot)” value in data set [1] is reported as “decreased levels”.

Turning to `COC(=O)[C@]12CCC(C)(C)C[C@H]1[C@H]1C(=O)C=C3[C@@]4(C)C=C(C#N)C(=O)C(C)(C)[C@@H]4CC[C@@]3(C)[C@]1(C)CC2` [CDDO-Me, CDDO methyl ester], in data set [1] (1 μM, 12 hr and 24 hr), the “MUC1 expression (immunoblot)” value is “detectable at 12 hr and nearly complete at 24 hr”.

On to `N[C@@H](CCC(=O)N[C@@H](CS)C(=O)NCC(=O)O)C(=O)O` [GSH, glutathione], for which, in data set [1] (cells treated with antioxidant), the “CDDO-, CDDO-Me-, CDDO-Im- and CDDO-Pr-Im-induced decreases in MUC1” value is “blocked the effects”.

For the compound `Nc1ccn([C@@H]2O[C@H](CO)[C@@H](O)[C@@H]2O)c(=O)n1` [ara-C, 1-b-D-arabinofuranosycyltosine], the mitochondrial transmembrane potential entry in data set [2] (3Y1/MUC1 cells) is on record as “apparent increase”; in data set [2] (3Y1/vector-A and -B cells), “decrease”. Moreover, the “activation of caspase-9” value in data set [2] (3Y1/MUC1 compared to 3Y1/vector cells) was “attenuated”. Also, in data set [2] (3Y1/vector and 3Y1/MUC1 cells), the “release of cytochrome c into the cytosol” value is “release of cytochrome c into the cytosol of 3Y1/vector, and not 3Y1/MUC1”. The “caspase-3-mediated cleavage of PKCd” value in data set [2] (MUC1 expressing cells) is given as “attenuated”. For the same compound, the ara-C-induced apoptosis entry in data set [3] (3Y1/MUC1 cells) was “significantly attenuated”. Further, the “apoptosis (sub-G1 DNA analysis)” value in data set [3] (3Y1/vector cells) is reported as “over 40%”. Besides, in data set [3] (3Y1/vector, but not 3Y1/MUC1, cells), the TUNEL staining entry is “substantial induction”.

With `COc1cccc2c1C(=O)c1c(O)c3c(c(O)c1C2=O)C[C@@](O)(C(C)=O)C[C@@H]3O[C@H]1C[C@H](N)[C@H](O)[C@H](C)O1` [daunorubicin], in data set [4], the “MUC1 expression (immunoblot)” value is “rapid and transient induction”.

On to `COc1cc([C@@H]2c3cc4c(cc3[C@@H](O[C@@H]3O[C@@H]5CO[C@@H](C)O[C@H]5[C@H](O)[C@H]3O)[C@H]3COC(=O)[C@H]23)OCO4)cc(OC)c1O` [etoposide], for which, in data set [5], the “sensitivity on knocking-down MUC1 expression” value is on record as “increased substantially”.

As to `Nc1ccn([C@@H]2O[C@H](CO)[C@@H](O)C2(F)F)c(=O)n1` [gemcitabine], in data set [3] (3Y1/MUC1 compared to 3Y1/vector cells, 50 mM gemcitabine), the “gemcitabine-induced apoptosis (sub-G1 DNA)” value was “attenuated”.

For the compound TNF-α, the apoptosis result is “failed to induce apoptosis” in data set [6] (TNF-α alone) and “induction of HCT116/vector cell apoptosis” in data set [6] (in the presence of cycloheximide (CHX), FIG. 18).

Take “siRNA #3: double stranded anti-MUC1 siRNA, target SEQ ID NO: 21, sense SEQ ID NO: 22, antisense SEQ ID NO: 23 (sense AAGGAGACUUCGGCUGCCCTT; antisense GGGCAGCCGAAGUCUCCUUTT; sugars from the 5' end r19 d2, backbone not given here)”: the “MUC1 expression at the protein level (immunoblot)” value in data set [7] was “downregulation of MUC1 expression”.

With “siRNA #4: double stranded anti-MUC1 siRNA, target SEQ ID NO: 66, sense SEQ ID NO: 67, antisense SEQ ID NO: 68 (sense GUUCAGUGCCCAGCUCUACTT; antisense GUAGAGCUGGGCACUGAACTT; sugars from the 5' end r19 d2, backbone not given here)”, the “MUC1 expression at the protein level (immunoblot)” value in data set [7] is given as “downregulation of MUC1 expression”.

“siRNA #5: double stranded anti-MUC1 siRNA, target SEQ ID NO: 69, sense SEQ ID NO: 70, antisense SEQ ID NO: 71 (sense GGUUUCUGCAGGUAAUGGUTT; antisense ACCAUUACCUGCAGAAACCTT; sugars from the 5' end r19 d2, backbone not given here)”: the “MUC1 expression at the protein level (immunoblot)” value in data set [7] is “downregulation of MUC1 expression”.

The values are drawn from US20050042209A1, “MUC1 extracellular domain and cancer treatment compositions and methods derived therefrom” (priority 2000, published 2005).
